# Source: ChEMBL document CHEMBL4359836, “Synthesis and Biological Assessment of Pyrrolobenzoxazine Scaffold as a Potent Antioxidant” (J Med Chem, 2019)
# Experiments:
# [1] = system: Mitochondria; assay: Antioxidant activity in goat cardiac mitochondria assessed as inhibition of CuCl2/ascorbic acid-induced manganese superoxide dismutase at 16.5 uM after 1 hr by pyrogallol autoxidation method relative to control; assay type: functional, subcellular; details: Capra hircus, Heart, Mitochrondria
# [2] = Antioxidant activity in pH 7.4 phosphate buffer assessed as DPPH radical scavenging activity after 30 mins by spectrophotometric analysis; assay type: functional
# [3] = Antioxidant activity in pH 7.4 phosphate buffer assessed as DPPH radical scavenging activity at 64 uM after 30 mins by spectrophotometric analysis (reference value: 0.811 +/- 0.02%); assay type: functional
# [4] = Reducing power of the compound assessed as reducing Fe3+ power at 80 uM using K3Fe(CN)6 in pH 6.6 phosphate buffer after 20 mins by spectrophotometric analysis
# [5] = system: Mitochondria; assay: Antioxidant activity in goat cardiac mitochondria assessed as inhibition of CuCl2/ascorbic acid-induced lipid peroxidation at 33 uM after 1 hr by thiobarbituric acid based UV-Visible spectrophotometric method (reference value: 60.11%); assay type: functional, subcellular; details: Capra hircus, Heart, Mitochrondria
# [6] = system: Mitochondria; assay: Antioxidant activity in goat cardiac mitochondria assessed as inhibition of CuCl2/ascorbic acid-induced manganese superoxide dismutase at 66 uM after 1 hr by pyrogallol autoxidation method relative to control; assay type: functional, subcellular; details: Capra hircus, Heart, Mitochrondria
# [7] = system: Mitochondria; assay: Antioxidant activity in goat cardiac mitochondria assessed as reversal of CuCl2/ascorbic acid-induced reduction in PDH level at 16.5 uM using sodium pyruvate as substrate after 1 hr spectrophotometric analysis (reference value: 66.25%); assay type: functional, subcellular; design: scale not given: the % may be the effect or the level left; details: Capra hircus, Heart, Mitochrondria
# [8] = system: Mitochondria; assay: Antioxidant activity in goat cardiac mitochondria assessed as reversal of CuCl2/ascorbic acid-induced reduction in PDH level at 33 uM using sodium pyruvate as substrate after 1 hr by spectrophotometric analysis relative to control; assay type: functional, subcellular; details: Capra hircus, Heart, Mitochrondria
# [9] = system: Mitochondria; assay: Antioxidant activity in goat cardiac mitochondria assessed as reversal of CuCl2/ascorbic acid-induced reduction in ICDH level at 16.5 uM using isocitrate as substrate after 1 hr (reference value: 65.58%); assay type: functional, subcellular; design: scale not given: the % may be the effect or the level left; details: Capra hircus, Heart, Mitochrondria
# [10] = system: Mitochondria; assay: Antioxidant activity in goat cardiac mitochondria assessed as reversal of CuCl2/ascorbic acid-induced reduction in alpha-KGDH level at 16.5 uM using alpha-ketoglutarate as substrate after 1 hr (reference value: 69.78%); assay type: functional, subcellular; design: scale not given: the % may be the effect or the level left; details: Capra hircus, Heart, Mitochrondria
# [11] = system: Mitochondria; assay: Antioxidant activity in goat cardiac mitochondria assessed as reversal of CuCl2/ascorbic acid-induced reduction in SDH level at 8.25 uM using succinate as substrate after 1 hr by spectrophotometric analysis (reference value: 71.51%); assay type: functional, subcellular; design: scale not given: the % may be the effect or the level left; details: Capra hircus, Heart, Mitochrondria
# [12] = Inhibition of PDH in goat cardiac mitochondria assessed as effect on Vmax at 66 uM using sodium pyruvate as substrate after 1 hr by Lineweaver-Burk double reciprocal plot analysis; design: species or system Capra hircus, Heart
# [13] = Effect on manganese superoxide dismutase-like activity in cardiac mitochondria at 8.25 to 66 uM after 1 hr by pyrogallol autoxidation method relative to control; assay type: ADME, subcellular, Capra hircus, Heart, Mitochrondria; details: goat
# [14] = system: Mitochondria; assay: (§1) Protective activity against CuCl2/ascorbic acid-induced apoptotic alteration in goat cardiac mitochondria assessed as reversal of CuCl2/ascorbic acid-induced reduction in cytochrome c oxidoreductase activity at 66 uM incubated for 1 hr and measured at 10 secs time interval for 90 secs by spectrophotometric analysis (reference value: 47.82%); assay type: functional, subcellular; design: scale not given: the % may be the effect or the level left; details: Capra hircus, Heart, Mitochrondria
# [15] = system: Mitochondria; assay: as §1, with “oxidase” for “oxidoreductase”, “16.5” for “66”, “relative to control” for “(reference value: 47.82%)”; assay type: functional, subcellular; details: Capra hircus, Heart, Mitochrondria
# [16] = system: Mitochondria; assay: as §1, with “oxidase” for “oxidoreductase”, “33” for “66”, “relative to control” for “(reference value: 47.82%)”; assay type: functional, subcellular; details: Capra hircus, Heart, Mitochrondria
# [17] = Effect on cytochrome c oxidase activity in goat cardiac mitochondria at 8.25 to 66 uM incubated for 1 hr and measured at 10 secs time interval for 90 secs by spectrophotometric analysis; assay type: ADME, subcellular, Capra hircus, Heart, Mitochrondria
# [18] = system: Mitochondria; assay: Protective activity in goat cardiac mitochondria assessed as reduction in CuCl2/ascorbic acid-induced calcium accumulation at 66 uM after 60 min (reference value: 25.32%); assay type: functional, subcellular; design: scale not given: the % may be the effect or the level left; details: Capra hircus, Heart, Mitochrondria
# [19] = Binding affinity to Cu2+ assessed as binding constant K1 at 66 uM in presence of ascorbic acid/CuCl2 by isothermal titration calorimetry
# [20] = Binding affinity to Cu2+ assessed as binding constant K2 at 66 uM in presence of CuCl2 by isothermal titration calorimetry
# [21] = Binding affinity to Cu2+ assessed as binding constant K4 at 66 uM in presence of CuCl2 by isothermal titration calorimetry
smiles,measurement,setting,value
CCOC(=O)c1c(-c2ccc(O)c(OC)c2)cn2c1c(=O)oc1ccccc12,inhibition,[1],34.1%
same,Activity,[2],Dose-dependent effect
same,IC50,[2],46.4 µM
same,MEC,[2],66 µM
same,Activity,[3],82.3%
same,Activity,[4],Dose-dependent effect
same,inhibition,[5],28.2%
same,inhibition,[6],60.9%
same,Activity,[7],94.5%
same,fold change (FC),[8],2.94
same,Activity,[9],75.5%
same,Activity,[10],85.4%
same,Activity,[11],51.7%
same,inhibition (INH),[12],Not Active
same,Activity,[13],Non-Toxic
same,Activity,[14],85.2%
same,fold change (FC),[15],2.36
same,fold change (FC),[16],3.5
same,Activity,[17],Non-Toxic
same,Activity,[18],15%
same,K,[19],8.7 ×10⁴ /M
same,K,[20],9.55 ×10⁴ /M
same,K,[21],9 ×10⁴ /M
